Test results reported in ChEMBL document CHEMBL1140252, “Deoxyribosyl analogues of methionyl and isoleucyl sulfamate adenylates as inhibitors of methionyl-tRNA and isoleucyl-tRNA synthetases” (Bioorg Med Chem Lett, 2005).

How the values were obtained:
Isoleucine--tRNA ligase = Isoleucine--tRNA ligase (Escherichia coli K-12, UniProt P00956); experiment: Inhibitory concentration against Escherichia coli Ile-tRNA synthetase
Methionine--tRNA ligase = Methionine--tRNA ligase (Escherichia coli K-12, UniProt P00959); experiment: Inhibitory concentration against Escherichia coli Met-tRNA synthetase
Sequence of Methionine--tRNA ligase (P00959 whole entry): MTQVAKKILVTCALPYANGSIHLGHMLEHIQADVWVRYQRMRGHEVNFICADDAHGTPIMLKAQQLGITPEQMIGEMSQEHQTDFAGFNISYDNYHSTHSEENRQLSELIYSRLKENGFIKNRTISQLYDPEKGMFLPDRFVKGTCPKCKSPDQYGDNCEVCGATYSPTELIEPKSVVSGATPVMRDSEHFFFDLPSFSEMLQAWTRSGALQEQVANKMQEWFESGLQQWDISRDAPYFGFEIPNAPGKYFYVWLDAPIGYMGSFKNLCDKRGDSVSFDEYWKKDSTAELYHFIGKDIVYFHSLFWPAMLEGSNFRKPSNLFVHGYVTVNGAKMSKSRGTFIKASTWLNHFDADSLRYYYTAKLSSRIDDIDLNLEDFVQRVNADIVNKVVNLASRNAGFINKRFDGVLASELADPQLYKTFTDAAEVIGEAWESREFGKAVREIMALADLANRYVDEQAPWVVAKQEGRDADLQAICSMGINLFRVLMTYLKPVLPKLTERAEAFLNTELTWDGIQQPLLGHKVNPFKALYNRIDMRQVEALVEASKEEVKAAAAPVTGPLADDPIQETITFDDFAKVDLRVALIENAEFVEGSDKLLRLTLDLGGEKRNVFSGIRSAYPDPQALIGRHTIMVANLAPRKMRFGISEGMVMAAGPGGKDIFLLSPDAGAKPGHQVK

Sequence of Isoleucine--tRNA ligase (P00956 whole entry): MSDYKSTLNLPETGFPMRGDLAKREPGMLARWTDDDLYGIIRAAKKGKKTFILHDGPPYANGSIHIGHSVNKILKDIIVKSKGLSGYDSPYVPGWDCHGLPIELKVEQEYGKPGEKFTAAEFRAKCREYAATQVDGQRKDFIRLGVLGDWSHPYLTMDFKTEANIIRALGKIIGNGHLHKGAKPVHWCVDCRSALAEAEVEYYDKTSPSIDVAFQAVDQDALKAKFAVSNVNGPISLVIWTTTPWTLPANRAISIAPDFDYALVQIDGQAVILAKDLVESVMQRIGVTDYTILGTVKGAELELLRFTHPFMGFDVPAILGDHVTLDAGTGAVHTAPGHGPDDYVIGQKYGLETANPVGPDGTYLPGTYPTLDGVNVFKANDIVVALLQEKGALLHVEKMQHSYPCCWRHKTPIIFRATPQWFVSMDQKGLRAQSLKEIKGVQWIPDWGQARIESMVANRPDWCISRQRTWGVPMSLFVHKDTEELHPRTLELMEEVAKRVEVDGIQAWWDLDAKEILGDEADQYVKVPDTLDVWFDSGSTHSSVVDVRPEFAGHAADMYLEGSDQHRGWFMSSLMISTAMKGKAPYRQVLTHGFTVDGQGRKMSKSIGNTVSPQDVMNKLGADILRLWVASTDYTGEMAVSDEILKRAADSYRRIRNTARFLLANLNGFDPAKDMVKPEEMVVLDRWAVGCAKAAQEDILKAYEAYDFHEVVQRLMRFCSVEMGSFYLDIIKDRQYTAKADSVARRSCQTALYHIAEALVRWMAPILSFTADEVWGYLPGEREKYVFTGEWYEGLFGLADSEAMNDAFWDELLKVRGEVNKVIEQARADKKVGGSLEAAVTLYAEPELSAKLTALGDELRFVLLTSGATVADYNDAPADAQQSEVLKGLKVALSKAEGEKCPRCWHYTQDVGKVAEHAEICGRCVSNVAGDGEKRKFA

| IC50 (Isoleucine--tRNA ligase) | IC50 (Methionine--tRNA ligase) | SMILES |
| --- | --- | --- |
|  | 110 µM | CSCC[C@H](N)C(=O)NS(=O)(=O)OC[C@H]1O[C@@H](n2cnc3c(N)ncnc32)C[C@@H]1O |
|  | 0.383 µM | CSCC[C@H](N)C(=O)NS(=O)(=O)O[C@@H]1CC[C@H](n2cnc3c(N)nnnc32)O1 |

The next lines start with the molecule.

| SMILES | IC50 (Isoleucine--tRNA ligase) | IC50 (Methionine--tRNA ligase) |
| --- | --- | --- |
| CC[C@H](C)[C@H](N)C(=O)NS(=O)(=O)OC[C@@H]1CC[C@H](n2cnc3c(N)ncnc32)O1 | 6.4 µM |  |
| CC[C@H](C)[C@H](N)C(=O)NS(=O)(=O)OC[C@@H]1C[C@@H](O)[C@H](n2cnc3c(N)ncnc32)O1 | 35 µM |  |
| CC[C@H](C)[C@H](N)C(=O)NS(=O)(=O)O[C@H]1O[C@@H](n2cnc3c(N)ncnc32)C[C@@H]1O | 280 µM |  |
| CC[C@H](C)[C@H](N)C(=O)NS(=O)(=O)OC[C@H]1O[C@@H](n2cnc3c(N)ncnc32)[C@H](O)[C@@H]1O | 0.265 µM |  |
| CSCC[C@H](N)C(=O)NS(=O)(=O)OC[C@@H]1C[C@@H](O)[C@H](n2cnc3c(N)ncnc32)O1 |  | 220 µM |
| CSCC[C@H](N)C(=O)NS(=O)(=O)OC[C@H]1O[C@@H](n2cnc3c(N)ncnc32)[C@H](O)[C@@H]1O |  | 0.083 µM |
